Tests used:
[1] = biological target: T1, JAK3 (Homo sapiens, UniProt P52333); assay: JAK3 Inhibition Assay, 33P incorporation; type: biochemical; conditions: enzyme inhibition data (Ki), Table 11
T1 sequence (P52333 1-1124): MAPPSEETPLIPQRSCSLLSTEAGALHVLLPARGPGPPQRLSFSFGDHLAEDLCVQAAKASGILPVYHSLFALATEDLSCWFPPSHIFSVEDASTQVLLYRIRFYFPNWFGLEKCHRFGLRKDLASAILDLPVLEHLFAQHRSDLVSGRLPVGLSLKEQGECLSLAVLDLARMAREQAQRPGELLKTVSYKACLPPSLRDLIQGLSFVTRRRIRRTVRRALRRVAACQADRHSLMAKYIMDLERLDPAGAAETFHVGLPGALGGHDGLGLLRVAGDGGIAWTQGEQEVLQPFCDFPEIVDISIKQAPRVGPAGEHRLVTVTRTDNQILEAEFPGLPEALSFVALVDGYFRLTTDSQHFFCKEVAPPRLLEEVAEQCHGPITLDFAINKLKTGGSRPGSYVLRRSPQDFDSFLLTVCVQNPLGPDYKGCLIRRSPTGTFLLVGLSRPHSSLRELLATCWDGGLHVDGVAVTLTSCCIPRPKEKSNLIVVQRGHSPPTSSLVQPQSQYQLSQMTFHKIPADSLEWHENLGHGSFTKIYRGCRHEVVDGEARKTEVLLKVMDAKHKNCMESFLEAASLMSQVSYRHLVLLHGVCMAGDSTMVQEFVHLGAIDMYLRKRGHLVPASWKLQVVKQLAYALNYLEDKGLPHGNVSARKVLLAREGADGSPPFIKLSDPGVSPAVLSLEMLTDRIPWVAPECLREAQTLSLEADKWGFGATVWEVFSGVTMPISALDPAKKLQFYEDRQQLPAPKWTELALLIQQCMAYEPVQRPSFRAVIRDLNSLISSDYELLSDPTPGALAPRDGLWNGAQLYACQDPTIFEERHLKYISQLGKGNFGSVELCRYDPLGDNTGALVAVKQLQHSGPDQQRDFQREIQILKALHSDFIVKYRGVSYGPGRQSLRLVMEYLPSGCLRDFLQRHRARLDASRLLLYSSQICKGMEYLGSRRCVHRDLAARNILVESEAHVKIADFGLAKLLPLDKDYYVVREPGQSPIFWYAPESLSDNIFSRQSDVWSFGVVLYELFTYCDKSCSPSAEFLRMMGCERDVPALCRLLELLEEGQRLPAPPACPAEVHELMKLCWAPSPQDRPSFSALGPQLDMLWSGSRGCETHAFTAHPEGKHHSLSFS
Procedure, shortened: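 Recombinant JAK3 at 1 nM in HEPES pH 7.4 buffer with 10 mM MgCl2, 1 mM DTT and 0.01% BSA. Substrates were 5 μM ATP (200 uCi/μmole) and 1 μM poly(Glu)4Tyr, reacted 20 min at 25 °C. Stopped with TCA, and 33P incorporation counted on glass fiber filters.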

[2] = biological target: T2, Aurora-2 (Homo sapiens, UniProt O14965); assay: Aurora-A (Aurora-2) Inhibition Assay, coupled enzyme assay; type: biochemical; conditions: enzyme inhibition data (Ki), Table 11; read-out: AurA Ki
T2 sequence (O14965 1-403): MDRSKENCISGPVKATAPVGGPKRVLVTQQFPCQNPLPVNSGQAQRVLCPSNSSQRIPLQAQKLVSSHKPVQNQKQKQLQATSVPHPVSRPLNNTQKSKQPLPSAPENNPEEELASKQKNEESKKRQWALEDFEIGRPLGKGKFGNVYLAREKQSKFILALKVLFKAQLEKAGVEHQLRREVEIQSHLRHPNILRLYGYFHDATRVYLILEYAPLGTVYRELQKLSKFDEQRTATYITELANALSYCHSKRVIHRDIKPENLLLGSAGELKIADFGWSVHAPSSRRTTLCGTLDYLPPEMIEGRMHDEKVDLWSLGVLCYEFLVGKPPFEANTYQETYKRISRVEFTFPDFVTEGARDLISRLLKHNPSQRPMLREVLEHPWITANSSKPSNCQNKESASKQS
Description: Compounds are screened for their ability to inhibit Aurora-2 using a standard coupled enzyme assay (Fox et al., Protein Sci., (1998) 7, 2249). Assays are carried out in a mixture of 100 mM Hepes (pH7.5), 10 mM MgCl2, 1 mM DTT, 25 mM NaCl, 2.5 mM phosphoenolpyruvate, 300 μM NADH, 30 μg/ml pyruvate kinase and 10 μg/ml lactate dehydrogenase. Final substrate concentrations in the assay are 400 μM ATP (Sigma Chemicals) and 570 μM peptide (Kemptide, American Peptide, Sunnyvale, Calif.). Assays are carried out at 30° C. and in the presence of 40 nM Aurora-2.
An assay stock buffer solution is prepared containing all of the reagents listed above, with the exception of Aurora-2 and the test compound of interest. 55 μl of the stock solution is placed in a 96 well plate followed by addition of 2 μl of DMSO stock containing serial dilutions of the test compound (typically starting from a final concentration of 7.5 μM). The plate is preincubated for 10 minutes at 30° C. and the reaction initiated by addition of 10 μl of Aurora-2. Initial reaction rates are determined with a Molecular Devices SpectraMax Plus plate reader over a 10 minute time course. IC50 and Ki data are calculated from non-linear regression analysis using the Prism software package (GraphPad Prism version 3.0cx for Macintosh, GraphPad Software, San Diego Calif., USA).

Structure (SMILES) | Ki [1] [nM] | Ki [2] [nM]
Nc1nn2cc(-c3ccncc3)cnc2c1-c1cc(NCC2CCCCC2)ncn1 [Compound V-184] | 500 to 5000 | < 500
CN(C)Cc1ccc(-c2cnc3c(-c4ccccn4)c(N)nn3c2)cc1 [Compound V-214] | 500 to 5000 | < 500
Nc1nn2cc(C(=O)NC3CCCNC3)cnc2c1-c1ccccn1 (centres unmarked) [Compound V-206] | > 5000 | 500 to 5000
CNCCCN(C)C(=O)c1cccc(-c2cnc3c(-c4ccccn4)c(N)nn3c2)c1 [Compound V-190] | 500 to 5000 | 500 to 5000
CNCCCN(C)C(=O)c1ccc(-c2cnc3c(-c4ccccn4)c(N)nn3c2)cc1 [Compound V-191] | 500 to 5000 | < 500
Nc1nn2cc(-c3ccc4[nH]ccc4c3)cnc2c1-c1ccccn1 [Compound V-212] | > 5000 | < 500
CCN(CC)CCN(C)C(=O)c1cccc(-c2cnc3c(-c4ccccn4)c(N)nn3c2)n1 [Compound V-124] | > 5000 | 500 to 5000
CNc1cc(-c2c(N)nn3cc(-c4ccncc4)cnc23)ncn1 [Compound V-181] | < 500 | < 500
COC(=O)C1CCCN1C(=O)c1cccc(-c2cnc3c(-c4ccccn4)c(N)nn3c2)n1 (centres unmarked) [Compound V-139] | > 5000 | 500 to 5000
Nc1nn2cc(-c3ccc(N4CCC[C@@H]4CN4CCCC4)nc3)cnc2c1-c1ccccn1 [Compound V-176] | 500 to 5000 | 500 to 5000
CNCCCN(C)Cc1ccc(-c2cnc3c(-c4ccccn4)c(N)nn3c2)cc1 [Compound V-230] | 500 to 5000 | < 500
CC(C)Nc1cc(-c2c(N)nn3cc(-c4ccncc4)cnc23)ncn1 [Compound V-182] | < 500 | < 500
CCN(CC)C(=O)c1cccc(-c2cnc3c(-c4ccccn4)c(N)nn3c2)n1 [Compound V-127] | > 5000 | 500 to 5000
Nc1nn2cc(-c3cccc(CO)c3)cnc2c1-c1ccccn1 [Compound V-221] | 500 to 5000 | 500 to 5000
CCN(C)C(=O)c1cccc(-c2cnc3c(-c4ccccn4)c(N)nn3c2)n1 [Compound V-115] | > 5000 | 500 to 5000
Nc1nn2cc(-c3ccc(N4CCNCC4)nc3)cnc2c1-c1ccccn1 [Compound V-151] | > 5000 | 500 to 5000
Cc1ccc(-c2c(N)nn3cc(-c4ccncc4)cnc23)nc1 [Compound V-132] | > 5000 | 500 to 5000
CC(C)CN(C)c1cc(-c2c(N)nn3cc(-c4ccncc4)cnc23)ncn1 [Compound V-243] | < 500 | < 500
CNCc1ccc(-c2cnc3c(-c4ccccn4)c(N)nn3c2)cc1 [Compound V-236] | 500 to 5000 | < 500
Nc1nn2cc(C#CCO)cnc2c1-c1ccccn1 [Compound V-238] | 500 to 5000 | 500 to 5000
Nc1nn2cc(-c3ccc(CN4CCNCC4)cc3)cnc2c1-c1ccccn1 [Compound V-217] | 500 to 5000 | < 500
CCN(CC)c1cc(-c2c(N)nn3cc(-c4ccncc4)cnc23)ncn1 [Compound V-180] | < 500 | < 500
CC(C)CN(C)C(=O)c1ccc(-c2cnc3c(-c4ccccn4)c(N)nn3c2)nc1 [Compound V-97] | 500 to 5000 | < 500

Structure (SMILES) | Ki [1] [nM] | Ki [2] [nM]
CNC(=O)c1cnc2c(-c3ccccn3)c(N)nn2c1 [Compound V-204] | > 5000 | 500 to 5000
CC(C)(O)C#Cc1cnc2c(-c3ccccn3)c(N)nn2c1 [Compound V-237] | 500 to 5000 | 500 to 5000
COc1ccc(-c2cn3nc(N)c(-c4ccccn4)c3nc2C)cc1 [Compound V-216] | > 5000 | 500 to 5000
COCCNc1ccc(-c2cnc3c(-c4ccccn4)c(N)nn3c2)cn1 [Compound V-156] | > 5000 | 500 to 5000
Nc1nn2cc(-c3cccc(N4CCNCC4)c3)cnc2c1-c1ccccn1 [Compound V-222] | 500 to 5000 | < 500
CCN1CCN(C(=O)c2cccc(-c3cnc4c(-c5ccccn5)c(N)nn4c3)n2)CC1 [Compound V-102] | > 5000 | 500 to 5000
Nc1nn2cc(-c3ccc(CO)cc3)cnc2c1-c1ccccn1 [Compound V-194] | 500 to 5000 | < 500
Nc1nn2cc(-c3cccc(CN4CCNCC4)c3)cnc2c1-c1ccccn1 [Compound V-223] | 500 to 5000 | 500 to 5000
NC1NN2C=C(c3cccc(CN4CC[C@@H](N)C4)c3)C=NC2=C1c1ccccn1 (some centres unmarked) [Compound V-226] | > 5000 | 500 to 5000
NCc1cccc(-c2cnc3c(-c4ccccn4)c(N)nn3c2)c1 [Compound V-202] | > 5000 | 500 to 5000
CS(=O)(=O)Nc1cccc(-c2cnc3c(-c4ccccn4)c(N)nn3c2)c1 [Compound V-18] | > 5000 | < 500
Nc1nn2cc(-c3ccncc3)cnc2c1-c1cc(Nc2ccccc2)ncn1 [Compound V-241] | < 500 | < 500
CCN1CCN(c2ccc(-c3cnc4c(-c5ccccn5)c(N)nn4c3)cn2)CC1 [Compound V-166] | > 5000 | 500 to 5000
COc1ccc(-c2cnc3c(-c4ccncc4)c(N)nn3c2)cc1 [Compound V-219] | > 5000 | 500 to 5000
Nc1nn2cc(-c3ccc(CN4CCC(N)CC4)cc3)cnc2c1-c1ccccn1 [Compound V-234] | 500 to 5000 | < 500
Nc1nn2cc(-c3cccc(C(=O)N4CCC[C@@H]4CN4CCCC4)n3)cnc2c1-c1ccccn1 [Compound V-175] | 500 to 5000 | 500 to 5000
Nc1nn2cc(-c3ccc(CN4CCOCC4)cc3)cnc2c1-c1ccccn1 [Compound V-208] | 500 to 5000 | < 500
C#CCN(C)C(=O)c1cccc(-c2cnc3c(-c4ccccn4)c(N)nn3c2)n1 [Compound V-106] | > 5000 | 500 to 5000
Nc1nn2cc(-c3cccc(C(=O)N4CCC[C@H]4CN4CCCC4)n3)cnc2c1-c1ccccn1 [Compound V-154] | > 5000 | 500 to 5000
COc1ccccc1Nc1cc(-c2c(N)nn3cc(-c4ccncc4)cnc23)ncn1 [Compound V-242] | < 500 | < 500
CN1CCCN(c2ccc(-c3cnc4c(-c5ccccn5)c(N)nn4c3)cn2)CC1 [Compound V-160] | > 5000 | 500 to 5000
Nc1nn2cc(-c3ccncc3)cnc2c1-c1ncccc1OCc1ccccc1 [Compound V-134] | > 5000 | 500 to 5000
CC(C)N1CCN(c2ccc(-c3cnc4c(-c5ccccn5)c(N)nn4c3)cn2)CC1 [Compound V-146] | > 5000 | 500 to 5000
